Reference: patent US9340577B2, “HLA binding motifs and peptides and their uses” (priority 1992, dated 2016)
No end group written: not given here.

How the values were obtained:
Test in all cases: biochemical
Assay type in all cases: binding
[1] = molecular target: HLA-A1 (A*0101) (Homo sapiens, UniProt P04439, A114D/A174V/A182V/D101N/D185E/E176A/E190D/L180R/Q94H/R68K/S129P/T187R/V100A/V91M/W191G)
[2] = molecular target: A*2601 (Homo sapiens, UniProt P04439, A114D/A173T/A270S/D101N/D185E/E277Q/E87N/F33Y/G231S/I121R/I218V/K168Q/L180W/L300P/L318F/P208A/P217A/Q86R/Q94H/R138Q/S129P/T187R/T323A/T345S/V100A/V358M)
[3] = molecular target: A*3002 (Homo sapiens, UniProt P04439, D101N/D140H/D185E/E176R/F33S/G80R/H175R/K168Q/Q94H/R138E/R41S/V100E)
Chain of A*3002 (P04439 whole entry, looked up, the tested form may be a part, stated change not applied): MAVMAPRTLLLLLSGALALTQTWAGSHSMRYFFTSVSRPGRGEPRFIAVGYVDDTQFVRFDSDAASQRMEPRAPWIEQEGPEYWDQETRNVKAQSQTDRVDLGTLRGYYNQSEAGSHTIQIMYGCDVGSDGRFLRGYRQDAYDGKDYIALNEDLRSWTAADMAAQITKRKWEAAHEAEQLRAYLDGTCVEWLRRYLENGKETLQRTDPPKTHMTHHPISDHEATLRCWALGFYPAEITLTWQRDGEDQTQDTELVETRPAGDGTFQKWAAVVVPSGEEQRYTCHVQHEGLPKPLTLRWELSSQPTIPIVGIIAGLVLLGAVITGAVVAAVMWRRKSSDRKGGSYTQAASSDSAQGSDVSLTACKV

[4] = molecular target: A*2902 (Homo sapiens, UniProt P04439, A270S/D101N/D185E/E176V/E277Q/E87Q/F33T/G231S/H175R/I121M/I218V/I322F/K168Q/L300P/L318F/M331R/P208A/P217A/Q86L/T323A/T345S/V100A/V358M)
[5] = molecular target: HLA-A11 (A*1101) (Homo sapiens, UniProt P04439, A114D/D185E/E176A/F33Y/L180Q/S129P/T187R)
[6] = molecular target: A31 (A*3101) (Homo sapiens, UniProt P04439, A270S/D185E/E176V/E277Q/F33T/G231S/G80R/H175R/I121M/I218V/I322F/K168Q/L300P/L318F/M331R/P217A/Q94H/R138Q/T323A/T345S/T97I/V358M)
[7] = molecular target: A*3301 (Homo sapiens, UniProt P04439, A270S/D185E/E176V/E277Q/E87N/F33T/G231S/H175R/I121M/I218V/I322F/K168Q/K210R/L300P/L318F/M331R/P217A/Q86R/Q94H/R138Q/T323A/T345S/T97I/V358M/Y195H)
[8] = molecular target: A*6801 (Homo sapiens, UniProt P04439, A269V/D185E/E176V/E277Q/E87N/F33Y/G231S/I121M/I166T/I218V/L180W/L300P/L318F/N151K/P208A/P217A/Q86R/R169H/T345S)

Row | Molecule | IC50 [1] [nM] | IC50 [2] [nM] | IC50 [3] [nM] | IC50 [4] [nM] | IC50 [5] [nM] | IC50 [6] [nM] | IC50 [7] [nM] | IC50 [8] [nM]
1 | SSNTKANILY [Peptide 1580.08] | 290 | 579 | 33 |  |  |  |  | 
2 | HTARELHPEY [Peptide 9018.0004] | 8 | 12 | 9.2 |  |  |  |  | 
3 | VTIEWRLRRY [Peptide 9018.0015] | 19 | 33 | 3.5 | 123 |  |  |  | 
4 | FGEMVQWAY [Peptide 1580.13] | 318 | > 20000 | 249 | 81 |  |  |  | 
5 | DLADQLIHLY [Peptide 9015.0184] | 958 | 6.2 |  | 9790 |  |  |  | 
6 | VSDRANGWFY [Peptide 9018.0012] | 4.3 | 191 | 18 | 932 |  |  |  | 
7 | LSDMVQWAY [Peptide 1593.03] | 21 | 8060 | 161 | 504 |  |  |  | 
8 | VSRRANGWFY [Peptide 9015.0179] |  | > 20000 | 5.2 | 5580 |  |  |  | 
9 | LFDQLIHMYY [Peptide 9018.0030] |  | 2410 | 65 | 12 |  |  |  | 
10 | VMDDSEIAY [Peptide 1580.07] |  | > 20000 | 2550 | 95 |  |  |  | 
11 | SIDWRQRRY [Peptide 9018.0018] | 43 | 236 | 3.5 | 561 |  |  |  | 
12 | SYEWRLRRY [Peptide 9018.0036] | 3700 | 3220 | 58 |  |  |  |  | 
13 | HYARELHPEY [Peptide 9018.0035] | > 20000 | > 20000 | 104 | 928 |  |  |  | 
14 | ITDDSEIAY [Peptide 1593.04] | 20 | 7370 | 3100 | 1440 |  |  |  | 
15 | SIEWRLRRY [Peptide 9015.0035] | 5230 | 164 | 265 | 13100 |  |  |  | 
16 | MSMSQWIKY [Peptide 1580.05] | 229 | 158 | 1.8 | 7.7 |  |  |  | 
17 | SSDAALYWY [Peptide 1593.08] | 34 | > 20000 | 799 | 1970 |  |  |  | 
18 | DTADQLIHLY [Peptide 9018.0021] | 3.6 | 3.2 | 13 | 30 |  |  |  | 
19 | LSDLQDSGY [Peptide 1580.15] | 1.7 | > 20000 | 4030 | > 20000 |  |  |  | 
20 | IVDDSEIAY [Peptide 1580.04] |  | > 20000 | 2030 |  |  |  |  | 
21 | VSRRAKGWFY [Peptide 9015.0178] | 273 | > 20000 | 40 | 11900 |  |  |  | 

Row | Molecule | IC50 [1] [nM] | IC50 [2] [nM] | IC50 [3] [nM] | IC50 [4] [nM] | IC50 [5] [nM] | IC50 [6] [nM] | IC50 [7] [nM] | IC50 [8] [nM]
22 | MRDNWRSELY [Peptide 9015.0155] | > 20000 | > 20000 | 73 | 6800 |  |  |  | 
23 | SIDWRLRRY [Peptide 9018.0020] | 986 | 624 | 27 | 3310 |  |  |  | 
24 | GTEELRSLY [Peptide 9015.0010] |  | 666 | 51 | 4830 |  |  |  | 
25 | KSLVKHHMY [Peptide 9015.0034] | 10500 | > 20000 | 7.7 | 2790 |  |  |  | 
26 | GTDCNGWFY [Peptide 1593.01] | 40 | 318 | 330 | 73 |  |  |  | 
27 | SFEPIPIHY [Peptide 9015.0001] | > 20000 | 953 | 191 | 9.4 |  |  |  | 
28 | VSIEWRLRRY [Peptide 9015.0181] | 4630 | 363 | 55 | 2490 |  |  |  | 
29 | VWTIVYIEY [Peptide 9015.0089] | 6980 | > 20000 |  |  |  |  |  | 
30 | VSIEWRQRRY [Peptide 9015.0182] | 7930 | 1990 | 65 | 13900 |  |  |  | 
31 | GYFPDWQNY [Peptide 1605.15] | > 20000 | > 20000 | 48 | 659 |  |  |  | 
32 | YTDGPGTRY [Peptide 9018.0002] | 0.39 | 28 | 63 | 65 |  |  |  | 
33 | LMWKFDSSL [Peptide 1605.16] | > 20000 | > 20000 | 348 | 2050 |  |  |  | 
34 | LADQLIHMYY [Peptide 9015.0187] | 2.5 | 1780 | 769 |  |  |  |  | 
35 | TWETWWTDY [Peptide 9015.0019] | > 20000 | 3300 | 6310 | 137 |  |  |  | 
36 | VTRRAKGWFY [Peptide 9018.0013] | 1.5 | 15 | 3.3 | 21 |  |  |  | 
37 | YTDGPGVRY [Peptide 9018.0003] | 2.1 | 152 | 45 | 39 |  |  |  | 
38 | LSEMVQWAY [Peptide 1580.10] | 6.9 | > 20000 |  | 633 |  |  |  | 
39 | YTPGPGVRY [Peptide 9015.0026] |  | 27 | 7640 | 1350 |  |  |  | 
40 | KYCWNLLQY [Peptide 1595.08] | > 20000 | > 20000 | 47 | 235 |  |  |  | 
41 | VTDDSEIAY [Peptide 1593.13] | 22 | > 20000 | 10100 |  |  |  |  | 
42 | VTTIVYIEY [Peptide 9018.0041] | 3.6 | 448 | 92 |  |  |  |  | 

Row | Molecule | IC50 [1] [nM] | IC50 [2] [nM] | IC50 [3] [nM] | IC50 [4] [nM] | IC50 [5] [nM] | IC50 [6] [nM] | IC50 [7] [nM] | IC50 [8] [nM]
43 | RQEILDLWVY [Peptide 9015.0174] | 7250 | 8720 | 76 |  |  |  |  | 
44 | CC(C)C[C@H](NC(=O)[C@H](CO)NC(=O)[C@@H](N)CCCNC(=N)N)C(=O)N[C@@H](Cc1ccc(O)cc1)C(=O)N[C@@H](CC(N)=O)C(=O)N[C@H](C(=O)N[C@H](C(=O)N[C@@H](C)C(=O)N[C@H](C(=O)N[C@@H](CC(C)C)C(=O)N[C@@H](Cc1ccc(O)cc1)C(=O)O)[C@@H](C)O)C(C)C)[C@@H](C)O [Peptide 1595.06] | 221 |  | 1.2 | 750 | 148 | 9270 | > 20000 | > 20000
45 | GLADQLIHLY [Peptide 9015.0185] | 5520 | 426 | 9.2 |  |  |  |  | 
46 | IVNRVRQGY [Peptide 1595.07] | 19800 |  | 6.3 | 2030 |  |  |  | 
47 | GTADQLIHLY [Peptide 9018.0023] | 26 | 68 | 2 |  |  |  |  | 
48 | SFDPIPIHY [Peptide 9015.0002] | 315 | 2650 |  | 27 |  |  |  | 
49 | ITKIGPENPY [Peptide 9015.0162] |  | 985 |  | > 20000 |  |  |  | 
50 | STEWRQRRY [Peptide 9018.0017] | 7.1 | 371 | 19 |  |  |  |  | 
51 | VSIEWRKRRY [Peptide 9015.0183] | > 20000 |  | 231 | > 20000 |  |  |  | 
52 | ISWTYIDDY [Peptide 86.0135] |  | > 20000 | 9.4 | 2490 |  |  |  | 
53 | MWKFDSRLAL [Peptide 1605.17] | > 20000 | > 20000 |  | > 20000 |  |  |  | 
54 | LTDDSDIAY [Peptide 1580.11] |  | 3920 | 5440 | 4770 |  |  |  | 
55 | LTDQLIHMYY [Peptide 9018.0029] | 6.3 | 3210 | 197 |  |  |  |  | 
56 | HTAREKHPEY [Peptide 9018.0006] |  | 15 |  | 4460 |  |  |  | 
57 | QTKGLGISY [Peptide 9015.0031] | > 20000 |  | 715 | > 20000 |  |  |  | 
58 | HMARELHPEY [Peptide 9015.0176] | 618 | 1570 | 33 |  |  |  |  | 
59 | YTPGPGTRY [Peptide 9015.0027] |  | 11 | 9150 | 1280 |  |  |  | 
60 | NYLVKHHMY [Peptide 9018.0037] | 305 |  | 12 | 63 |  |  |  | 
61 | KSDIVTLTY [Peptide 1593.07] | 62 | > 20000 |  | 3170 |  |  |  | 
62 | ISERILSTY [Peptide 1522.03] | 31 | 4100 |  | > 20000 |  |  |  | 
